The values that follow come from patent US11999677B2, “Benzylamino-oxoethyl benzamide analogs and methods of use” (The Board of Regents of the University of Oklahoma, priority 2018, dated 2024).

The structures appear in SMILES notation. “Also recorded” adds a separate entry of the source. Read-outs that look alike come from different tables or passages of the source.

Series [1] relates to INS-1 cells. Kind of series: Cell viability assay: INS-1 β-cells co-treated with compound and tunicamycin (Tm), CellTiter-Glo intracellular ATP. The format is cell-based, rat. The conditions noted are these: for Max Activity (%) / Emax: % rescue from Tm (0.15 μg/mL)-induced reduction of INS-1 cell viability, intracellular ATP, 72 h, Tm alone = 0%, DMSO control without Tm = 100%; for Emax: INS1, 72 h, read-out: Max Activity (%); for EC50: ten 2-fold serial titration points, triplicate, read-out: EC50 (μM), concentration that reaches half-maximal activity for INS-1 cell viability; for β-cell protective activity against Tm (in words): INS-1 cells in the presence of Tm. As for the experimental part: INS-1 cells were cultured in RPMI 1640 medium (Corning) supplemented with 10% FBS (Atlanta Biologicals), 10 mM HEPES (Gibco-Life Technologies), 1 mM sodium pyruvate (Corning), 50 μM 2-mercaptoethanol (Sigma-Aldrich), and antibiotics (100 UI/mL penicillin and 100 µg/mL streptomycin; Corning) and maintained in a humidified 5% CO2 atmosphere at 37° C.
INS-1 cells were resuspended in RPMI 1640 medium containing 10% FBS and plated at 5×10^3 cells/(40 μL.well) into white clear bottom 384-well plates (Greiner) using an automated liquid handler (Biotek). After 24 h incubation at 37° C., library compounds were added to the wells at the indicated concentration using a pin-transfer robot (PerkinElmer). Tunicamycin (Tm) in RPMI 1640 medium containing 10% FBS was then added at a final concentration of 0.15 μg/mL. After 72 h, the medium was removed and 20 μL of CellTiter-Glo reagent which measures intracellular ATP levels as an indicator of viability (Promega) was added. Luminescence was measured 10 min later using an Envision plate reader (PerkinElmer).
We designed and synthesized novel benzylamino-oxoethyl benzamide analogs (5a-q, Table 1) and studied their effects on β-cell protection against ER stress. The analogs were tested for the viability of rat INS-1 β-cells in the presence of Tm, a potent ER stress inducer that inhibits N-linked glycosylation of proteins. The maximum activities and the concentrations that reach half-maximal activity (EC50) of the compounds were evaluated by the degree of increase in viability of INS-1 cells co-treated with the compounds in the presence of Tm compared with Tm treatment alone.

The nature of series [2]: Solubility assay: turbidity in water, absorbance at 620 nm. The format is physicochemical. The conditions noted are these: pure H2O with 1% DMSO, 37° C., 1-2 h shaking, absorbance 620 nm; compared with compound 1. The procedure: Aqueous solubility was assessed as the degree of turbidity of compound in aqueous solutions, detected by absorbance at 620 nm. Higher turbidity indicated lower solubility. The experiments were performed in triplicate, with the results as the means±SD of triplicate wells.
Each compound was prepared at concentrations from 40 mM to 0.1 mM in DMSO in a serial-dilution manner. 2 μL of each of the above compound solutions was then dispensed directly to ˜198 μL of pure H2O in a 96-well white clear bottom microplate. Resulting solutions were shaken at 37° C. temperature 1-2 h on a rotary shaker at varying shaking rates to reach equilibrium solubility. The turbidity of the solution was measured using UV-visible spectrophotometry at 620 nm.
We investigated whether the compounds of the present disclosure have improved aqueous solubility. Using a thermodynamic turbidimetric assay we evaluated the aqueous solubility of several of the newly synthesized compounds.

For series [3], the system named is pancreatic β-cells. The conditions noted are these: cited from earlier work.
Setting [4] is: Rattus norvegicus, INS1, INS-1 cells with Tm 0.15 μg/mL.

For the molecule `Cc1c(Cl)cccc1C(=O)NCC(=O)NCCc1ccc(O)cc1` [Compound 5f, 3-Chloro-N-(2-((4-hydroxyphenethyl)amino)-2-oxoethyl)-2-methylbenzamide], the “Max Activity (%)” value in series [1] is recorded as 41%. Besides, in series [1] (Rattus norvegicus), the Emax lay in the range of 41 to 55%. Moreover, the EC50 in series [1] (setting [4]) was found to be 34 ± 8 µM.

`CCc1ccc(C(=O)NCC(=O)NCc2ccc(C(F)(F)F)cc2)cc1` [Compound 5k, 4-Ethyl-N-(2-oxo-2-((4-(trifluoromethyl)benzyl)amino)ethyl)benzamide]: the “Max Activity (%)” value in series [1] amounted to 42%. Also, the EC50 in series [1] (INS-1 cells with Tm 0.15 μg/mL) turned out to be 45 ± 8 µM. Also, the Emax in series [1] (Rattus norvegicus) turned out to be 42%.

Regarding `O=C(CNC(=O)c1ccccc1)NCc1ccc(C(F)(F)F)cc1` [Compound 5j, N-(2-Oxo-2-((4-(trifluoromethyl)benzyl)amino)ethyl)benzamide], in series [1], the “Max Activity (%)” value is given as 35%. In addition, the EC50 in series [1] (INS-1 cells with Tm 0.15 μg/mL) was 43 ± 11 µM. The Emax in series [1] (Rattus norvegicus) came to 35%.

Take `COc1cc(C(=O)NCC(=O)NCc2ccc(C(F)(F)F)cc2)ccc1O` [Compound 5o, 4-hydroxy-3-methoxy-N-(2-oxo-2-((4-(trifluoromethyl)benzyl)amino)ethyl)benzamide]: the “β-cell protective activity against Tm (in words)” value (“β-cell protective activity” below) in series [1] is listed as “significantly compromised activity”. Further, the Emax in series [1] (Rattus norvegicus) was 43%. The EC50 in series [1] (setting [4]) came to 29 ± 6 µM.

In the case of `Cc1ccc(C)c(CNC(=O)CNC(=O)c2cccc(Cl)c2C)c1` [Compound 5a, 3-Chloro-N-(2-((2,5-dimethylbenzyl)amino)-2-oxoethyl)-2-methylbenzamide], the “Max Activity (%)” value in series [1] worked out at 45%. Also, the EC50 in series [1] (INS-1 cells with Tm 0.15 μg/mL) worked out at 18 ± 4 µM; in series [1] (setting [4]) it was 18.6 µM. Moreover, the Emax in series [1] (Rattus norvegicus) amounted to 45%.

As to `COc1cc(CNC(=O)CNC(=O)c2cccc(Cl)c2C)ccc1O` [Compound 5h, 3-Chloro-N-(2-((4-hydroxy-3-methoxybenzyl)amino)-2-oxoethyl)-2-methylbenzamide], the “Max Activity (%)” value in series [1] stood at 100%. Moreover, the Emax in series [1] (Rattus norvegicus) is 100%. Further, the EC50 in series [1] (setting [4]) was determined as 10 ± 2 µM. The “aqueous solubility (turbidimetric, in words)” value (shortened to “aqueous solubility”) in series [2] was “improved water solubility”.

For the molecule `Cc1c(Cl)cccc1C(=O)NC(C)C(=O)NCc1ccc(C(F)(F)F)cc1` (stereo not drawn) [Compound 5p, 3-Chloro-2-methyl-N-(1-oxo-1-((4-(trifluoromethyl)benzyl)amino)propan-2-yl)benzamide], in series [1], the “β-cell protective activity” value is “significantly less or not active”. Moreover, the Emax in series [1] (Rattus norvegicus) came to 34%. Besides, the EC50 in series [1] (setting [4]) was 63 ± 4 µM.

`COc1cc(CNC(=O)CNC(=O)c2cccc(O)c2)ccc1O` [Compound 5n, 3-Hydroxy-N-(2-((4-hydroxy-3-methoxybenzyl)amino)-2-oxoethyl)benzamide]: the “β-cell protective activity” value in series [1] is recorded as “significantly compromised activity”. In series [1] (Rattus norvegicus), the Emax came out at 30%. The EC50 in series [1] (setting [4]) is 65 ± 8 µM.

As to `O=C(CNC(=O)c1ccc(F)cc1)NCc1ccc(C(F)(F)F)cc1` [Compound 5l, 4-fluoro-N-(2-oxo-2-((4-(trifluoromethyl)benzyl)amino)ethyl)benzamide], in series [1], the “Max Activity (%)” value worked out at 12%. In addition, the Emax in series [1] (Rattus norvegicus) amounted to 12%. The EC50 in series [1] (setting [4]) stood at 41 ± 6 µM.

Regarding `COc1ccc(CNC(=O)CNC(=O)c2cccc(Cl)c2C)cc1` [Compound 5d, 3-Chloro-N-(2-((4-methoxybenzyl)amino)-2-oxoethyl)-2-methylbenzamide], the “Max Activity (%)” value in series [1] is given as 55%. In addition, the Emax in series [1] (Rattus norvegicus) fell in the range of 41 to 55%. Further, in series [1] (setting [4]), the EC50 was 32 ± 7 µM.

With `Cc1c(Cl)cccc1C(=O)NC(Cc1ccc(O)cc1)C(=O)NCc1ccc(C(F)(F)F)cc1` (stereo not drawn) [Compound 5q, 3-Chloro-N-(3-(4-hydroxyphenyl)-1-oxo-1-((4-(trifluoromethyl)benzyl)amino)propan-2-yl)-2-methylbenzamide], in series [1], the “Max Activity (%)” value is “Cytotoxic” and the “β-cell protective activity” value is “significantly less or not active”.

Take `O=C(CNC(=O)c1cccc(O)c1)NCc1ccc(C(F)(F)F)cc1` [Compound 5m, 3-Hydroxy-N-(2-oxo-2-((4-(trifluoromethyl)benzyl)amino)ethyl)benzamide]: the “Max Activity (%)” value in series [1] was determined as 100%. Further, the Emax in series [1] (Rattus norvegicus) came to 100%. In addition, the EC50 in series [1] (setting [4]) is 0.1 µM. Besides, in series [2], the “aqueous solubility” value is on record as “improved water solubility”.

For `Cc1c(Cl)cccc1C(=O)NCC(=O)Nc1ccc2nc[nH]c2c1` [Compound 5c, N-(2-((1H-benzo[d]imidazol-6-yl)amino)-2-oxoethyl)-3-chloro-2-methylbenzamide], the Emax in series [1] (Rattus norvegicus) amounted to 0%.

As to `Cc1c(Cl)cccc1C(=O)NCC(=O)NCc1ccc(C(F)(F)F)cc1` [Compound 5g, 3-Chloro-2-methyl-N-(2-oxo-2-((4-(trifluoromethyl)benzyl)amino)ethyl)benzamide], the “Max Activity (%)” value in series [1] is 88%. The Emax in series [1] (Rattus norvegicus) was found to be 88%. Also, the EC50 in series [1] (setting [4]) is 13 ± 1 µM. Moreover, in series [2], the “aqueous solubility” value is reported as “improved water solubility”.

Regarding `Cc1c(Cl)cccc1C(=O)NCC(=O)NCc1ccc(S(N)(=O)=O)cc1` [Compound 5e, 3-Chloro-2-methyl-N-(2-oxo-2-((4-sulfamoylbenzyl)amino)ethyl)benzamide], the “Max Activity (%)” value in series [1] is 52%. For the same molecule, the Emax in series [1] (Rattus norvegicus) was 41 to 55%. The EC50 in series [1] (setting [4]) was determined as 40 ± 12 µM.

On to `Cc1ccc(C)c(NC(=O)c2nnn(-c3cccc(Cl)c3C)c2C)c1` [Compound 1, 1-(3-chloro-2-methylphenyl)-N-(2,5-dimethylphenyl)-5-methyl-1H-1,2,3-triazole-4-carboxamide, reference compound], for which the “aqueous solubility” value in series [2] is listed as “sub-optimal aqueous solubility; also recorded: poor water solubility”. Also, in series [3], the “protective activity for pancreatic β-cells against ER stress (previously shown)” value is reported as “protective activity”.

Consider `Cc1c(Cl)cccc1C(=O)NCC(=O)NCc1cccc(C(F)(F)F)c1` [Compound 5i, 3-Chloro-2-methyl-N-(2-oxo-2-((3-(trifluoromethyl)benzyl)amino)ethyl)benzamide], for which the “Max Activity (%)” value in series [1] is 46%. In series [1] (Rattus norvegicus), the Emax turned out to be 46%. In addition, in series [1] (setting [4]), the EC50 turned out to be 32 ± 7 µM.

`Cc1c(Cl)cccc1C(=O)NCC(=O)NCc1ccccn1` [Compound 5b, 3-Chloro-2-methyl-N-(2-oxo-2-((pyridin-2-ylmethyl)amino)ethyl)benzamide]: the “Max Activity (%)” value in series [1] was 16%. Moreover, the Emax in series [1] (Rattus norvegicus) was 16%. In addition, the EC50 in series [1] (setting [4]) worked out at 38 ± 9 µM.
